# Assay results taken from US20230339952A1, “MACROCYCLIC HETEROCYCLES AND USES THEREOF” (Kumquat Biosciences Inc., priority 2022, published 2023).
# Read-outs that look alike come from different tables or passages of the source.
# Experiments:
# [1] = tested on: NCI-H1975 (ATCC CRL-5908) cell line comprising an EGFR T790M L858R double mutation; assay: EGFR-SOS cellular inhibition assay (CellTiter-Glo cell proliferation); type: cell-based; settings: Homo sapiens
# Protocol: A CellTiter-Glo (CTG) luminescent based assay (Promega) is used to assess growth of the cells, as a measurement of the ability of the compounds herein to inhibit EGFR signaling in the cells. […] The day after plating, cells are treated with a dilution series (e.g., a 9 point 3-fold dilution series) of the compounds herein (e.g., approximately 125 μL final volume per well).
# SOS1 = SOS1 (Homo sapiens (Human), UniProt Q07889); assay: Ras-SOS interaction assay (HTRF), K-Ras G13D utilized; type: binding; settings: K-Ras G13D
# SOS1, sequence (Q07889 564-1049): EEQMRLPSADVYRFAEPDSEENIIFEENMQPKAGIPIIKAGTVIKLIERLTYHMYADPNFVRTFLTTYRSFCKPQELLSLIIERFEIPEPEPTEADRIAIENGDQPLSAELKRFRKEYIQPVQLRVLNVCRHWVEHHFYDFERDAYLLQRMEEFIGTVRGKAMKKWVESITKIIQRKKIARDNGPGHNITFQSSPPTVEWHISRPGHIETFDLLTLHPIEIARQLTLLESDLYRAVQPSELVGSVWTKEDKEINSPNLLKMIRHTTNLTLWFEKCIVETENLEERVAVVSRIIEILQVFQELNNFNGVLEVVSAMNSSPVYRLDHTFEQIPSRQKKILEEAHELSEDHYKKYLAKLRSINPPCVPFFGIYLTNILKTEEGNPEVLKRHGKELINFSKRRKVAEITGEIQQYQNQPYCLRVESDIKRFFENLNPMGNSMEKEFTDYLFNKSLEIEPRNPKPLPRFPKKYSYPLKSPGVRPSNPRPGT
# [2] = 120 h, NCI-H1975 cell proliferation, approximately 5 days, read-out: H1975 IC50
# [3] = read-out: IC50 value against SOS1
Compound,"IC50 [1, 2] [nM]",IC50 (SOS1; read-out: SOS1 IC50) [nM],"IC50 ([1]; NCI-H1975, EGFR T790M L858R double mutation, read-out: IC50 in inhibiting growth of NCI-H1975 cell line) [nM]",IC50 (SOS1; [3]) [nM]
"CC(C)N1CCC(c2cc3c4ncnc3n(c2=O)CCCCCCN2CCC(CC2)CC(F)(F)c2cccc(c2F)[C@@H](C)N4)CC1 [Compound 140, (3R)-4^2,5,5-trifluoro-1^6-(1-isopropylpiperidin-4-yl)-3-methyl-1^7,1^8-dihydro-2-aza-1(4,8)-pyrido[2,3-d]pyrimidina-7(4,1)-piperidina-4(1,3)-benzenacyclotridecaphan-1^7-one]",< 1000,< 100,,
"Cc1nnc2c3cc(N4CCOCC4)nc(c13)OCCCCCCN1CCC(CC1)C(F)(F)c1cccc(c1)[C@@H](C)N2 [Compound 141, (R)-2,2-difluoro-6^4,4-dimethyl-6^7-morpholino-7-oxa-5-aza-6(1,5)-pyrido[3,4-d]pyridazina-1(4,1)-piperidina-3(1,3)-benzenacyclotridecaphane]",< 1000,< 100,,
"C[C@H]1Nc2ncnc3c2cc(C2(C#N)CC2)c(=O)n3CCCCNC(=O)CN2CCC(CC2)C(F)(F)c2cccc1c2F [Compound 147, 1-((4R)-3^2,2,2-trifluoro-4-methyl-6^7,12-dioxo-6^7,6^8-dihydro-5,11-diaza-6(4,8)-pyrido[2,3-d]pyrimidina-1(4,1)-piperidina-3(1,3)-benzenacyclotridecaphane-6^6-yl)cyclopropane-1-carbonitrile]",< 1000,< 100,,
"C[C@H]1Nc2ncnc3c2cc(C2CCS(=O)(=O)CC2)c(=O)n3CCCCCCN2CCC(CC2)CC(F)(F)c2cccc1c2F [Compound 156, (3R)-1^6-(1,1-dioxidothiomorpholino)-4^2,5,5-trifluoro-3-methyl-1^7,1^8-dihydro-2-aza-1(4,8)-pyrido[2,3-d]pyrimidina-7(4,1)-piperidina-4(1,3)-benzenacyclotridecaphan-1^7-one]",< 1000,< 100,,
"C[C@H]1Nc2ncnc3c2cc(C2CCS(=O)(=O)CC2)c(=O)n3CCCCCCCN2CC(C2)CC(F)(F)c2cccc1c2 [Compound 161, (3R)-1^6-(1,1-dioxidotetrahydro-2H-thiopyran-4-yl)-5,5-difluoro-3-methyl-1^7,1^8-dihydro-2-aza-1(4,8)-pyrido[2,3-d]pyrimidina-7(3,1)-azetidina-4(1,3)-benzenacyclotetradecaphan-1^7-one]",< 1000,< 100,,
"CC(C)N1CCN(c2cc3c4ncnc3n(c2=O)CC(=O)N(C)CCCCN2CCC(CC2)C(F)(F)c2cccc(c2)[C@@H](C)N4)CC1 [Compound 163, (4R)-2,2-difluoro-6^6-(4-isopropylpiperazin-1-yl)-4,9-dimethyl-6^7,6^8-dihydro-5,9-diaza-6(4,8)-pyrido[2,3-d]pyrimidina-1(4,1)-piperidina-3(1,3)-benzenacyclotridecaphane-6^7,8-dione]",< 1000,< 100,,
"Cc1nc2c3cc(C4(C#N)CC4)c(=O)n(c3n1)CCC/C=C\CN1CCC(CC1)C(F)(F)c1cccc(c1)[C@@H](C)N2 [Compound 166, 1-((4R,Z)-2,2-difluoro-6^2,4-dimethyl-6^7-oxo-6^7,6^8-dihydro-5-aza-6(4,8)-pyrido[2,3-d]pyrimidina-1(4,1)-piperidina-3(1,3)-benzenacyclododecaphan-10-en-6^6-yl)cyclopropane-1-carbonitrile]",< 1000,< 100,,< 50
"Cc1nc2c3cc(C4(C#N)CC4)c(=O)n(c3n1)CCCCCN1CCC(CC1)C(F)(F)c1cccc(c1)[C@@H](C)N2 [Compound 169, 1-((4R)-2,2-difluoro-6^2,4-dimethyl-6^7-oxo-6^7,6^8-dihydro-5-aza-6(4,8)-pyrido[2,3-d]pyrimidina-1(4,1)-piperidina-3(1,3)-benzenacycloundecaphane-6^6-yl)cyclopropane-1-carbonitrile]",< 1000,< 100,,
"COc1nnc2c3cc(C4CCS(=O)(=O)CC4)c(nc13)OCCCCCCCN1CCC(CC1)C(F)(F)c1cccc(c1F)[C@@H](C)N2 [Compound 177, (R)-4-(3^2,2,2-trifluoro-6^8-methoxy-4-methyl-7-oxa-5-aza-6(5,2)-pyrido[2,3-d]pyridazina-1(4,1)-piperidina-3(1,3)-benzenacyclotetradecaphane-6^3-yl)tetrahydro-2H-thiopyran 1,1-dioxide]",< 1000,< 100,,
"C[C@H]1Nc2ncnc3c2cc(N2CCN(C4CCN(C)CC4)CC2)c(=O)n3CCCCCCCN2CCC(CC2)C(F)(F)c2cccc1c2F [Compound 178, (4R)-3^2,2,2-trifluoro-4-methyl-6^6-(4-(1-methylpiperidin-4-yl)piperazin-1-yl)-6^7,6^8-dihydro-5-aza-6(4,8)-pyrido[2,3-d]pyrimidina-1(4,1)-piperidina-3(1,3)-benzenacyclotridecaphan-6^7-one]",< 1000,< 100,,

# Results, then the molecule that gave them:
"IC50 [1, 2] [nM]",IC50 (SOS1; read-out: SOS1 IC50) [nM],"IC50 ([1]; NCI-H1975, EGFR T790M L858R double mutation, read-out: IC50 in inhibiting growth of NCI-H1975 cell line) [nM]",IC50 (SOS1; [3]) [nM],Compound
< 1000,< 100,,,"C[C@H]1Nc2ncnc3c2cc(C2(C#N)CC2)c(=O)n3CCCNC(=O)CCN2CCC(CC2)C(F)(F)c2cccc1c2 [Compound 144, 1-((4R)-2,2-difluoro-4-methyl-6^7,11-dioxo-6^7,6^8-dihydro-5,10-diaza-6(4,8)-pyrido[2,3-d]pyrimidina-1(4,1)-piperidina-3(1,3)-benzenacyclotridecaphane-6^6-yl)cyclopropane-1-carbonitrile]"
< 1000,< 100,,,"CC(C)N1CCC(c2cc3c4ncnc3n(c2=O)CCCC/C=C/CN2CCC(CC2)C(F)(F)c2cccc(c2)[C@@H](C)N4)CC1 [Compound 149, (4R,E)-2,2-difluoro-6^6-(1-isopropylpiperidin-4-yl)-4-methyl-6^7,6^8-dihydro-5-aza-6(4,8)-pyrido[2,3-d]pyrimidina-1(4,1)-piperidina-3(1,3)-benzenacyclotridecaphan-11-en-6^7-one]"
< 1000,< 100,,,"C[C@H]1Nc2ncnc3c2cc(C2CCS(=O)(=O)CC2)c(=O)n3CCCCCN2CCC(CC2)CCC(F)(F)c2cccc1c2F [Compound 151, (3R)-1^6-(1,1-dioxidotetrahydro-2H-thiopyran-4-yl)-4^2,5,5-trifluoro-3-methyl-1^7,1^8-dihydro-2-aza-1(4,8)-pyrido[2,3-d]pyrimidina-8(4,1)-piperidina-4(1,3)-benzenacyclotridecaphan-1^7-one]"
< 1000,< 100,,,"C[C@H]1Nc2ncnc3c2cc(C2(C#N)CC2)c(=O)n3CCCCNC(=O)[C@H](C)N2CCC(CC2)C(F)(F)c2cccc1c2 [Compound 153, 1-((4R,13S)-2,2-difluoro-4,13-dimethyl-6^7,12-dioxo-6^7,6^8-dihydro-5,11-diaza-6(4,8)-pyrido[2,3-d]pyrimidina-1(4,1)-piperidina-3(1,3)-benzenacyclotridecaphane-6^6-yl)cyclopropane-1-carbonitrile]"
< 1000,< 100,,,"CC(C)N1CCN(c2cc3c4ncnc3n(c2=O)CCCCCN2CCC(CC2)CCC(F)(F)c2cccc(c2)[C@@H](C)N4)CC1 [Compound 154, (3R)-5,5-difluoro-1^6-(4-isopropylpiperazin-1-yl)-3-methyl-1^7,1^8-dihydro-2-aza-1(4,8)-pyrido[2,3-d]pyrimidina-8(4,1)-piperidina-4(1,3)-benzenacyclotridecaphan-1^7-one]"
< 1000,< 100,,,"C[C@H]1Nc2ncnc3c2cc(C2(C#N)CC2)c(=O)n3CC(=O)NCCCCN2CCC(CC2)C(F)(F)c2cccc1c2F [Compound 158, 1-((4R)-3^2,2,2-trifluoro-4-methyl-6^7,8-dioxo-6^7,6^8-dihydro-5,9-diaza-6(4,8)-pyrido[2,3-d]pyrimidina-1(4,1)-piperidina-3(1,3)-benzenacyclotridecaphane-6^6-yl)cyclopropane-1-carbonitrile]"
< 1000,< 100,< 500,< 50,"C[C@H]1Nc2ncnc3c2cc(C2(C#N)CC2)c(=O)n3CCCC/C=C\CN2CCC(CC2)C(F)(F)c2cccc1c2 [Compound 159, 1-((4R,Z)-2,2-difluoro-4-methyl-6^7-oxo-6^7,6^8-dihydro-5-aza-6(4,8)-pyrido[2,3-d]pyrimidina-1(4,1)-piperidina-3(1,3)-benzenacyclotridecaphan-11-en-6^6-yl)cyclopropane-1-carbonitrile]"
< 1000,< 100,,,"C[C@H]1Nc2ncnc3c2cc(C2CCS(=O)(=O)CC2)c(=O)n3CCCCn2cc(nn2)CN2CCC(CC2)C(F)(F)c2cccc1c2 [Compound 160, (6R,Z)-8^6-(1,1-dioxidotetrahydro-2H-thiopyran-4-yl)-4,4-difluoro-6-methyl-8^7,8^8-dihydro-1^1H-7-aza-8 (4,8)-pyrido[2,3-d]pyrimidina-3(1,4)-piperidina-1(4,1)-triazola-5(1,3)-benzenacyclododecaphan-8^7-one]"
< 1000,< 100,,,"CC(C)N1CCC(c2cc3c4ncnc3n(c2=O)CCCCCCCN2CCC(CC2)C(F)(F)c2cccc(c2F)[C@@H](C)N4)CC1 [Compound 162, (4R)-3^2,2,2-trifluoro-6^6-(1-isopropylpiperidin-4-yl)-4-methyl-6^7,6^8-dihydro-5-aza-6(4,8)-pyrido[2,3-d]pyrimidina-1(4,1)-piperidina-3(1,3)-benzenacyclotridecaphan-6^7-one]"
1000 to 10000,< 100,,< 50,"Cc1nc2c3cc(C4(C#N)CC4)c(=O)n(c3n1)CCCC/C=C\CN1CCC(CC1)C(F)(F)c1cccc(c1F)[C@@H](C)N2 [Compound 168, 1-((4R,Z)-3^2,2,2-trifluoro-6^2,4-dimethyl-6^7-oxo-6^7,6^8-dihydro-5-aza-6(4,8)-pyrido[2,3-d]pyrimidina-1(4,1)-piperidina-3(1,3)-benzenacyclotridecaphan-11-en-6^6-yl)cyclopropane-1-carbonitrile]"
< 1000,100 to 5000,,,"Cc1nc2c3cc(C4(C#N)CC4)c(=O)n(c3n1)CC/C=C\CN1CCC(CC1)C(F)(F)c1cccc(c1)[C@@H](C)N2 [Compound 172, 1-((4R,Z)-2,2-difluoro-6^2,4-dimethyl-6^7-oxo-6^7,6^8-dihydro-5-aza-6(4,8)-pyrido[2,3-d]pyrimidina-1(4,1)-piperidina-3(1,3)-benzenacycloundecaphan-9-en-6^6-yl)cyclopropane-1-carbonitrile]"
